Results: patent US12157730B2, “Heteroaryl derivative, method for producing same, and pharmaceutical composition comprising same as effective component” (VORONOI INC., priority 2019, dated 2024)
Where “and” joins values, the source holds several entries; their conditions need not be identical. Equal entries are not always repeated.

What was measured:
[1] = molecular target: T1, Ba/F3 cell EGFR L858R/T790M (Homo sapiens, UniProt P00533, L858R/T790M); test: Ba/F3 cell proliferation suppression, EGFR L858R/T790M; assay type: cell-based; conditions: 72 hours after treatment, CellTiter-Glo
T1 construct: expressed in transfected cells; host or cells: Ba/F3
Method: (§1) The following experiment was carried out to evaluate the suppression activity of the compounds according to the present invention against proliferation of Ba/F3 and lung cancer cells which express EGFR mutations.
(§2) Of the cancer cell lines expressing the EGFR gene, A549 was cultured after adding 10% FBS (HyClone) to DMEM (Invitrogen), and RPMI-1640 (Invitrogen) with 10% FBS was used for the other cancer cells. For the Ba/F3 cells, RPMI-1640 with 10% FBS and 5 ng/ml IL-3 (R&D Systems) was used. The transduced Ba/F3 cells were cultured by adding 1 ug/ml puromycin (Invitrogen) to the same medium.
(§3) 24 hours before treatment with the compounds, 3000 to 5000 cells were distributed into each well of a white clear bottom 96 well plate (Corning). The compounds were diluted in dimethylsulfoxide (dilution ratio 3:1; 12 concentrations total) and injected 0.5 ul each for a final concentration of 0.3 nM to 50 um. As for measurement of live cells, 72 hours after treatment with the compounds, a CellTiter-Glo luminescent cell-viability reagent (Promega) was used to store the cells at room temperature for 10 minutes, followed by measurement of luminescence using a reader (SynergyNeo, Biotek). Each test was repeated three times.
(§4) The result was calculated as a cell growth ratio (%) compared to a control. The program GraphPad Prism version 5.0 was used to draw the graphs and calculate the GI50 values.

[2] = test system: Ba/F3 cell EGFR Del19/T790M; test: Ba/F3 cell proliferation suppression, EGFR Del19/T790M; assay type: cell-based; conditions: 72 hours after treatment, CellTiter-Glo
Method: as §1, §2, §3, §4

Ba/F3 cell EGFR L858R = molecular target: T2, Ba/F3 cell EGFR L858R (Homo sapiens, UniProt P00533, L858R); test: Ba/F3 cell proliferation suppression, EGFR L858R; assay type: cell-based; conditions: 72 hours after treatment, CellTiter-Glo
T2 construct: expressed in transfected cells; host or cells: Ba/F3
Method: as §1, §2, §3, §4

[3] = molecular target: T3, Ba/F3 cell EGFR Exon20 ins NPH (Homo sapiens, UniProt P00533, INS773NPH); test: Ba/F3 cell proliferation suppression, EGFR Exon20 ins NPH; assay type: cell-based; conditions: for GI50: 72 hours after treatment, CellTiter-Glo; for Ba/F3 (NPH) Activity: GI50 class, Ba/F3 cell line with NPH inserted at Exon20 of EGFR, 72 hours
T3 construct: expressed in transfected cells; host or cells: Ba/F3
Procedure, shortened: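 Cells were seeded 24 h before dosing and then treated for 72 hours with compound at final concentrations of 0.3 nM to 50 um. Live cells were measured by CellTiter-Glo luminescence, and GI50 values were derived from growth ratio relative to control across three repeats.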

[4] = molecular target: T4, Ba/F3 cell EGFR Exon20 ins SVD (Homo sapiens, UniProt P00533, INS770SVD); test: Ba/F3 cell proliferation suppression, EGFR Exon20 ins SVD; assay type: cell-based; conditions: 72 hours after treatment, CellTiter-Glo
T4 construct: expressed in transfected cells; host or cells: Ba/F3
Method: as §1, §2, §3, §4

[5] = molecular target: T5, Ba/F3 cell EGFR Exon20 ins FQEA (Homo sapiens, UniProt P00533, INS763FQEA); test: Ba/F3 cell proliferation suppression, EGFR Exon20 ins FQEA; assay type: cell-based; conditions: 72 hours after treatment, CellTiter-Glo
T5 construct: expressed in transfected cells; host or cells: Ba/F3
Method: as §1, §2, §3, §4

[6] = molecular target: T6, Ba/F3 cell EGFR Exon20 ins ASV (Homo sapiens, UniProt P00533, INS769ASV); test: Ba/F3 cell proliferation suppression, EGFR Exon20 ins ASV; assay type: cell-based; conditions: 72 hours after treatment, CellTiter-Glo
T6 construct: expressed in transfected cells; host or cells: Ba/F3
Method: as §1, §2, §3, §4

[7] = molecular target: T7, Ba/F3 cell HER2 Exon20 ins YVMA (Homo sapiens, UniProt P04626, INS775YVMA); test: Ba/F3 cell proliferation suppression, HER2 Exon20 ins YVMA; assay type: cell-based; conditions: 72 hours after treatment, CellTiter-Glo
T7 construct: expressed in transfected cells; host or cells: Ba/F3
T7 sequence (P04626 with tags, fused parts or gaps INS775YVMA): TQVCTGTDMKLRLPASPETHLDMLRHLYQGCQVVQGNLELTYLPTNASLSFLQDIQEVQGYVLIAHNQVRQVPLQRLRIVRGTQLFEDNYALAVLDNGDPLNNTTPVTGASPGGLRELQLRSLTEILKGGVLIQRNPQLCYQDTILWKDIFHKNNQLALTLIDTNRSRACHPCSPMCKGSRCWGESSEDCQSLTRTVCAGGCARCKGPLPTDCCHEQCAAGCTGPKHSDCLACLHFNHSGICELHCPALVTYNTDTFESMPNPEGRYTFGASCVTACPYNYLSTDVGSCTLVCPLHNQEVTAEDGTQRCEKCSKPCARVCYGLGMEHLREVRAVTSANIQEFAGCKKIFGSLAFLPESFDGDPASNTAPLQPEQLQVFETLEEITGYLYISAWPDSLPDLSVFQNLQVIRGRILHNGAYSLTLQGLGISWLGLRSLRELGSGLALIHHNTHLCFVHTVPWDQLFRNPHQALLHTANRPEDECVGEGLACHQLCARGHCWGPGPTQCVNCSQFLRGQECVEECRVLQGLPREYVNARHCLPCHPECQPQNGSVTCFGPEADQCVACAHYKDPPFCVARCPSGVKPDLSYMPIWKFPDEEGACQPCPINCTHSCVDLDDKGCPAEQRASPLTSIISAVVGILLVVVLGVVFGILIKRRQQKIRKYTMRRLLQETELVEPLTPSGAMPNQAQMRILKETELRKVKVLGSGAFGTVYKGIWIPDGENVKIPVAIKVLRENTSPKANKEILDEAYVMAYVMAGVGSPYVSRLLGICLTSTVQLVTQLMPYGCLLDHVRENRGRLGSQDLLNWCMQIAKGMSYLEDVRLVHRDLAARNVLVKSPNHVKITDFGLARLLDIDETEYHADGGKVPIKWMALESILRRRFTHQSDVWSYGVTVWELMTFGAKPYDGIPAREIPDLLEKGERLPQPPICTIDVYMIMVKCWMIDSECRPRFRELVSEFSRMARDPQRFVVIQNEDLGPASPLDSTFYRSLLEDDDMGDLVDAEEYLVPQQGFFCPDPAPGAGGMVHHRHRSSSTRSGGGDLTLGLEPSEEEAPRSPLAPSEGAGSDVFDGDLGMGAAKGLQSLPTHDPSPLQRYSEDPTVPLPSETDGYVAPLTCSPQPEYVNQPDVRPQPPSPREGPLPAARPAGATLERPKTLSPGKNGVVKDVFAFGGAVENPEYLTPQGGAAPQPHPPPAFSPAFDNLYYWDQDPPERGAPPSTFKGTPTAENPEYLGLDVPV
Method: as §1, §2, §3, §4

Ba/F3 cell naive = test: Ba/F3 cell proliferation suppression, naive; assay type: cell-based; conditions: Mus musculus, BaF3; 72 hours after treatment, CellTiter-Glo
Method: as §1, §2, §3, §4

PC9GR = test: Lung cancer cell proliferation suppression, PC9GR; assay type: cell-based; conditions: 72 hours after treatment, CellTiter-Glo
Method: as §1, §2, §3, §4

H1975 = test: Lung cancer cell proliferation suppression, H1975; assay type: cell-based; conditions: Homo sapiens, NCI-H1975; 72 hours after treatment, CellTiter-Glo
Method: as §1, §2, §3, §4

PC9 = test: Lung cancer cell proliferation suppression, PC9; assay type: cell-based; conditions: Homo sapiens, PC-9; 72 hours after treatment, CellTiter-Glo
Method: as §1, §2, §3, §4

[8] = test system: scanMAX kinase panel (EGFR mutant, ERBB2, ERBB4); test: DiscoverX (eurofin) KINOMEscan (scanMAX platform) kinase profiling; assay type: binding; conditions: for suppression activity against the EGFR mutant and ERBB2 and ERBB4: KINOMEscan scanMAX kinase profiling
Excerpt: It was confirmed that the above example compounds had high selectivity against EGFR series genes. Accordingly, these can be useful in the treating of cancers wherein this kinase is expressed. In particular, as they have substantially outstanding lung cancer cell line proliferation suppression, they can be useful in the treatment of lung cancer, breast cancer, and brain cancer.

GI50 [1]	GI50 [2]	GI50 (Ba/F3 cell EGFR L858R)	GI50 [3]	Ba/F3 (NPH) Activity [3]	GI50 [4]	GI50 [5]	GI50 [6]	GI50 [7]	GI50 (Ba/F3 cell naive)	GI50 (PC9GR)	GI50 (H1975)	GI50 (PC9)	suppression activity against the EGFR mutant and ERBB2 and ERBB4 [8]	% inhibition of scanMAX Kinase profiling ([8]; EGFR(E746-A750del))	% inhibition of scanMAX Kinase profiling ([8]; EGFR(G719C))	% inhibition of scanMAX Kinase profiling ([8]; EGFR(G719S))	% inhibition of scanMAX Kinase profiling ([8]; EGFR(L747-E749del, A750P))	% inhibition of scanMAX Kinase profiling ([8]; EGFR(L747-T751del.Sins))	% inhibition of scanMAX Kinase profiling ([8]; EGFR(L858R.T790M))	Structure (SMILES)	also measured
< 0.05 µM	0.05 to 0.5 µM	< 0.05 µM	< 0.05 µM	A (GI50 < 50 nM)	< 0.05 µM	< 0.05 µM	< 0.05 µM	< 0.05 µM	0.5 to 5 µM	23 nM	4 nM	1 nM	high suppression activity							C=CC(=O)Nc1cc(Nc2cc(N3OCC[C@@H]3c3cc(F)cc(F)c3)ncn2)c(OC)cc1N1CC[C@@H](N(C)C)C1 [Example 242, N-(5-((6-((R)-3-(3,5-difluorophenyl)isoxazolidine-2-yl)pyrimidine-4-yl)amino)-2-((R)-3-(dimethylamino)pyrolidine-1-yl)-4-methoxyphenyl) acrylamide]	
< 0.05 µM	< 0.05 µM	< 0.05 µM	< 0.05 µM	A (GI50 < 50 nM)	< 0.05 µM	< 0.05 µM	< 0.05 µM	< 0.05 µM	≥ 5 µM	4 nM	1 nM	1 nM	high suppression activity	98%	100%	100%	98%	100%	96%	C=CC(=O)Nc1cc(Nc2cc(N3OCC[C@@H]3c3cc(F)cc(F)c3)ncn2)c(OC)cc1N1CCC(N2CCN(C3CC3)CC2)CC1 [Example 57]	% inhibition of scanMAX Kinase profiling ([8]; EGFR(L858R)): 100%; % inhibition of scanMAX Kinase profiling ([8]; EGFR(L861q)): 100%; % inhibition of scanMAX Kinase profiling ([8]; EGFR(S752-I759del)): 98%; % inhibition of scanMAX Kinase profiling ([8]; EGFR(T790M)): 100%; % inhibition of scanMAX Kinase profiling ([8]; ERBB2): 100%; % inhibition of scanMAX Kinase profiling ([8]; ERBB4): 100%
< 0.05 µM			< 0.05 µM	A (GI50 < 50 nM)	< 0.05 µM			< 0.05 µM	≥ 5 µM											C=CC(=O)Nc1cc(Nc2cc(N3OCC[C@@H]3c3cc(F)cc(F)c3)ncn2)c(OC)cc1N1CCC(N2CCN(C)CC2)CC1 [Example 26, N-(5-((6-((R)-3-(3,5-difluorophenyl)isoxazolidine-2-yl)pyrimidine-4-yl)amino)-4-methoxy-2-(4-(4-methylpiperazine-1-yl)piperidine-1-yl)phenyl)acrylamide]	
< 0.05 µM	< 0.05 µM	< 0.05 µM	< 0.05 µM	A (GI50 < 50 nM)	< 0.05 µM	< 0.05 µM	< 0.05 µM	< 0.05 µM	0.5 to 5 µM	12 nM	1 nM	1 nM	high suppression activity	50% and 100%	100%	100% and 99%	99% and 98%	100% and 96%	96% and 98%	C=CC(=O)Nc1cc(Nc2cc(N3OCC[C@@H]3c3cc(F)cc(F)c3)ncn2)c(OC)cc1N1CCC(N(C)C)CC1 [Example 241, N-(5-((6-((R)-3-(3,5-difluorophenyl)isoxazolidine-2-yl)pyrimidine-4-yl)amino)-2-(4-(dimethylamino)piperidine-1-yl)-4-methoxyphenyl) acrylamide]	% inhibition of scanMAX Kinase profiling ([8]; EGFR(L861q)): 100% and 98%; % inhibition of scanMAX Kinase profiling ([8]; EGFR(S752-I759del)): 100% and 95%; % inhibition of scanMAX Kinase profiling ([8]; EGFR(T790M)): 100%; % inhibition of scanMAX Kinase profiling ([8]; ERBB2): 100%; % inhibition of scanMAX Kinase profiling ([8]; ERBB4): 100% and 94%
